Calls of active or inactive are those of the source. No cut-off for these calls is given here.
Tests used:
Monkeypox virus [1] = assay: Antiviral activity against Monkeypox virus V77-I-823 infected in african green monkey BSC-40 cells at 0.05 to 0.5 uM by IHC staining-based plaque reduction assay; type: functional, organism-based
Monkeypox virus [2] = assay: Antiviral activity against Monkeypox virus V81-I-179 infected in african green monkey BSC-40 cells at 0.015 uM by IHC staining-based comet tail reduction assay; type: functional, organism-based
Monkeypox virus [3] = assay: Antiviral activity against Monkeypox virus V77-I-823 infected in african green monkey BSC-40 cells at 0.05 to 0.5 uM by IHC staining-based comet tail reduction assay; type: functional, organism-based
Variola virus [4] = assay: Antiviral activity against Variola virus SOM77-ali infected in african green monkey BSC-40 cells at 0.05 to 5 uM assessed as reduction in virus-induced cytopathic effect; type: functional, organism-based
Monkeypox virus [5] = assay: Antiviral activity against Monkeypox virus V1979-I-005 infected in african green monkey BSC-40 cells at 0.005 uM by IHC staining-based comet tail reduction assay; type: functional, organism-based
Cowpox virus = assay: Antiviral activity against Cowpox virus infected in african green monkey Vero cells assessed as reduction in virus-induced cytopathic effect; type: functional, organism-based
Variola virus [6] = assay: microbe, parasite or virus in culture; conditions: SOM77-ali, BSC-40
Variola virus [7] = assay: Antiviral activity against Variola virus BRZ66-39 infected in african green monkey BSC-40 cells at 0.05 to 5 uM assessed as reduction in virus-induced cytopathic effect; type: functional, organism-based
Variola virus [8] = assay: Antiviral activity against Variola virus NEP73-175 infected in african green monkey BSC-40 cells at 0.05 to 0.5 uM by IHC staining-based comet tail reduction assay; type: functional, organism-based
Camelpox virus = assay: Antiviral activity against Camelpox virus infected in african green monkey Vero cells assessed as reduction in virus-induced cytopathic effect; type: functional, organism-based
Monkeypox virus [9] = assay: Antiviral activity against Monkeypox virus V78-I-3945 infected in african green monkey BSC-40 cells at 0.015 uM by IHC staining-based comet tail reduction assay; type: functional, organism-based
Variola virus [10] = assay: Antiviral activity against Variola virus BSH74-sol infected in african green monkey BSC-40 cells at 0.015 uM by IHC staining-based comet tail reduction assay; type: functional, organism-based
Variola virus [11] = assay: microbe, parasite or virus in culture; conditions: BRZ66-39, BSC-40
Monkeypox virus [12] = assay: Antiviral activity against Monkeypox virus V78-I-3945 infected in african green monkey BSC-40 cells assessed as reduction in virus-induced cytopathic effect at 0.05 to 5 uM; type: functional, organism-based
Variola virus [13] = assay: Antiviral activity against Variola virus BRZ66-39 infected in african green monkey BSC-40 cells at 0.015 uM by IHC staining-based comet tail reduction assay; type: functional, organism-based
Monkeypox virus [14] = assay: Antiviral activity against Monkeypox virus V1979-I-005 infected in african green monkey BSC-40 cells assessed as reduction in virus-induced cytopathic effect; type: functional, organism-based; conditions: V1979-I-005, BSC-40
Variola virus [15] = assay: Antiviral activity against Variola virus SLN68-258 infected in african green monkey BSC-40 cells at 0.005 uM uM by IHC staining-based plaque reduction assay; type: functional, organism-based
Variola virus [16] = assay: Antiviral activity against Variola virus NEP73-175 infected in african green monkey BSC-40 cells assessed as reduction in viral plaque formation at 0.015 uM uM by IHC staining-based plaque reduction assay; type: functional
Monkeypox virus [17] = assay: Antiviral activity against Monkeypox virus V1979-I-005 infected in african green monkey BSC-40 cells assessed as reduction in virus-induced cytopathic effect at 0.005 uM; type: functional, organism-based
Variola virus [18] = assay: Antiviral activity against Variola virus SOM77-ali infected in african green monkey BSC-40 cells at 0.015 uM assessed as reduction in virus-induced cytopathic effect; type: functional, organism-based
Monkeypox virus [19] = assay: Antiviral activity against Monkeypox virus 2003-USA-039 infected in african green monkey BSC-40 cells assessed as reduction in virus-induced cytopathic effect at 0.005 uM; type: functional, organism-based
Monkeypox virus [20] = assay: Antiviral activity against Monkeypox virus infected in african green monkey vero cells assessed as reduction in virus-induced cytopathic effect; type: functional, organism-based
Monkeypox virus [21] = assay: Antiviral activity against Monkeypox virus V77-I-823 infected in african green monkey BSC-40 cells assessed as reduction in viral plaque formation at 0.015 uM uM by IHC staining-based plaque reduction assay; type: functional
Variola virus [22] = assay: Antiviral activity against Variola virus BSH74-sol infected in african green monkey BSC-40 cells at 0.05 to 0.5 uM by IHC staining-based comet tail reduction assay; type: functional, organism-based
Monkeypox virus [23] = assay: Antiviral activity against Monkeypox virus V77-I-823 infected in african green monkey BSC-40 cells assessed as reduction in virus-induced cytopathic effect at 0.015 uM; type: functional, organism-based
Variola virus [24] = assay: Antiviral activity against Variola virus SUD47-juba infected in african green monkey BSC-40 cells at 0.05 to 5 uM assessed as reduction in virus-induced cytopathic effect; type: functional, organism-based
Monkeypox virus [25] = assay: Antiviral activity against Monkeypox virus V1979-I-005 infected in african green monkey BSC-40 cells at 0.005 uM uM by IHC staining-based plaque reduction assay; type: functional, organism-based
Variola virus [26] = assay: Antiviral activity against Variola virus BRZ66-39 infected in african green monkey BSC-40 cells at 0.005 uM uM by IHC staining-based plaque reduction assay; type: functional, organism-based
Monkeypox virus [27] = assay: Antiviral activity against Monkeypox virus V78-I-3945 infected in african green monkey BSC-40 cells at 0.005 uM by IHC staining-based comet tail reduction assay; type: functional, organism-based
Variola virus [28] = assay: microbe, parasite or virus in culture; conditions: BSH74-sol, BSC-40
Variola virus [29] = assay: Antiviral activity against Variola virus SOM77-ali infected in african green monkey BSC-40 cells at 0.015 uM by IHC staining-based comet tail reduction assay; type: functional, organism-based
Monkeypox virus [30] = assay: Antiviral activity against Monkeypox virus V1979-I-005 infected in african green monkey BSC-40 cells assessed as reduction in viral plaque formation at 0.015 uM uM by IHC staining-based plaque reduction assay; type: functional
Variola virus [31] = assay: Antiviral activity against Variola virus SUD47-juba infected in african green monkey BSC-40 cells at 0.05 to 0.5 uM by IHC staining-based comet tail reduction assay; type: functional, organism-based
Ectromelia virus = assay: Antiviral activity against Ectromelia virus infected in african green monkey Vero cells assessed as reduction in virus-induced cytopathic effect; type: functional, cell-based
Variola virus [32] = assay: Antiviral activity against Variola virus BRZ66-39 infected in african green monkey BSC-40 cells at 0.005 uM assessed as reduction in virus-induced cytopathic effect; type: functional, organism-based
Monkeypox virus [33] = assay: Antiviral activity against Monkeypox virus V77-I-823 infected in african green monkey BSC-40 cells at 0.005 uM uM by IHC staining-based plaque reduction assay; type: functional, organism-based
Variola virus [34] = assay: Antiviral activity against Variola virus BRZ66-39 infected in african green monkey BSC-40 cells assessed as reduction in viral plaque formation at 0.015 uM uM by IHC staining-based plaque reduction assay; type: functional
Monkeypox virus [35] = assay: Antiviral activity against Monkeypox virus V81-I-179 infected in african green monkey BSC-40 cells at 0.005 uM by IHC staining-based comet tail reduction assay; type: functional, organism-based

## O=C(NN1C(=O)[C@@H]2[C@@H]3C=C[C@@H]([C@H]4C[C@@H]34)[C@@H]2C1=O)c1ccc(C(F)(F)F)cc1 [TECOVIRIMAT]
Monkeypox virus [1]
  Activity: Active
Monkeypox virus [2]
  Activity: Active
Monkeypox virus [3]
  Activity: Active
Variola virus [4]
  Activity: Active
Monkeypox virus [5]
  Activity: inactive
Cowpox virus
  Activity: Active
Variola virus [6]
  EC50: 28 nM
Variola virus [7]
  Activity: Active
Variola virus [8]
  Activity: Active
Camelpox virus
  Activity: Active
Monkeypox virus [9]
  Activity: Active
Variola virus [10]
  Activity: Active
Variola virus [11]
  EC50: 67 nM
Monkeypox virus [12]
  Activity: Active
Variola virus [13]
  Activity: Active
Monkeypox virus [14]
  EC50: 39 nM
Variola virus [15]
  Activity: inactive
Variola virus [16]
  inhibition (INH): 50%
Monkeypox virus [17]
  Activity: inactive
Variola virus [18]
  Activity: Active
Monkeypox virus [19]
  Activity: inactive
Monkeypox virus [20]
  Activity: Active
Monkeypox virus [21]
  inhibition (INH): 50%
Variola virus [22]
  Activity: Active
Monkeypox virus [23]
  Activity: Active
Variola virus [24]
  Activity: Active
Monkeypox virus [25]
  Activity: inactive
Variola virus [26]
  Activity: inactive
Monkeypox virus [27]
  Activity: inactive
Variola virus [28]
  EC50: 28 nM
Variola virus [29]
  Activity: Active
Monkeypox virus [30]
  inhibition (INH): 50%
Variola virus [31]
  Activity: Active
Ectromelia virus
  Activity: Active
Variola virus [32]
  Activity: inactive
Monkeypox virus [33]
  Activity: inactive
Variola virus [34]
  inhibition (INH): 50%
Monkeypox virus [35]
  Activity: inactive

From ChEMBL document CHEMBL1629642, “In vitro efficacy of ST246 against smallpox and monkeypox” (Antimicrob Agents Chemother, 2009)
